The source of these data is ChEMBL document CHEMBL6074677, “Development of dual V1a/V2 antagonists containing triazolobenzazepine scaffold” (Eur J Med Chem, 2025).

The target of series [1] is Vasopressin V1a receptor (Mus musculus) (UniProt Q62463). Nature of the series: In vivo antagonist activity at vasopressin V1a receptor in male NMRI mouse assessed as inhibition of oxytocin-induced scratching behavior at 3 mg/kg, po pretreated with compound for 60 mins followed by oxytocin administration and measured after 1 hrs relative to control. Type of series: functional, organism-based. The note with it: time 120.0 min.

The target of series [2] is T1, Vasopressin V1a receptor (Homo sapiens, UniProt P37288). As to the kind of experiment: Displacement of [3H]AVP from human vasopressin V1a receptor expressed in human 1321N1 cells. Type of series: cell-based.
The target in series [3] is Vasopressin V1a receptor (Mus musculus) (UniProt Q62463). As to the kind of experiment: In vivo antagonist activity at vasopressin V1a receptor in male NMRI mouse assessed as inhibition of oxytocin-induced scratching behavior at 0.3 mg/kg, po pretreated with compound for 60 mins followed by oxytocin administration and measured after 1 hrs relative to control. The note with it: time 120.0 min. It is filed as functional, organism-based.

The nature of series [4]: Metabolic stability in mouse liver microsomes assessed as intrinsic clearance at 1 uM in presence of NADPH. It is filed as ADME, Microsome. The note with it: read-out: CLH.
The nature of series [5]: Apparent permeability across apical to basolateral side in vinblastine treated human Caco-2 cells incubated for 15 to 60 mins by HPLC analysis. It is filed as ADME, cell-based. The settings on record: time 15-60 min.
A further series has as its target Vasopressin V2 receptor (Homo sapiens, UniProt P30518). Nature of the series: Displacement of [3H]AVP from human vasopressin V2 receptor expressed in human 1321N1 cells assessed as inhibition constant. It is filed as cell-based.
For series [6], the target named is Vasopressin V1a receptor (Mus musculus, UniProt Q62463). Nature of the series: Displacement of [3H]AVP from mouse vasopressin V1a receptor expressed in human 1321N1 cells assessed as inhibition constant. Type of series: cell-based.
In series [7] the target is Vasopressin V1a receptor (Mus musculus) (UniProt Q62463). As to the kind of experiment: In vivo antagonist activity at vasopressin V1a receptor in male NMRI mouse assessed as inhibition of oxytocin-induced scratching behavior at 0.1 mg/kg, po pretreated with compound for 60 mins followed by oxytocin administration and measured after 1 hrs relative to control. It is filed as functional, organism-based. The note with it: time 120.0 min.

Series [8] can be described thus: Metabolic stability in rat liver microsomes assessed as intrinsic clearance at 1 uM in presence of NADPH. Type of series: ADME, Microsome. The note with it: read-out: CLH.
Series [9] deals with Vasopressin V1a receptor (Mus musculus) (UniProt Q62463). As to the kind of experiment: In vivo antagonist activity at vasopressin V1a receptor in male NMRI mouse assessed as inhibition of oxytocin-induced scratching behavior at 1 mg/kg, po pretreated with compound for 60 mins followed by oxytocin administration and measured after 1 hrs relative to control. Type of series: functional, organism-based. The note with it: time 120.0 min.

The nature of series [10]: Metabolic stability in human liver microsomes assessed as intrinsic clearance at 1 uM in presence of NADPH. Type of series: ADME, Microsome. The note with it: read-out: CLH.
In series [11] the target is Voltage-gated inwardly rectifying potassium channel KCNH2 (Homo sapiens, UniProt Q12809). As to the kind of experiment: Inhibition of human ERG expressed in CHO cells at -80 mV holding potential measured for 7 to 10 mins by automated patch clamp method. It is filed as toxicity, cell-based.
For series [12], the target named is T1, Vasopressin V1a receptor. As to the kind of experiment: Displacement of [3H]AVP from human vasopressin V1a receptor expressed in human 1321N1 cells assessed as inhibition constant. Type of series: cell-based.

Sequence of Vasopressin V1a receptor (Mus musculus) (Q62463 whole entry, looked up): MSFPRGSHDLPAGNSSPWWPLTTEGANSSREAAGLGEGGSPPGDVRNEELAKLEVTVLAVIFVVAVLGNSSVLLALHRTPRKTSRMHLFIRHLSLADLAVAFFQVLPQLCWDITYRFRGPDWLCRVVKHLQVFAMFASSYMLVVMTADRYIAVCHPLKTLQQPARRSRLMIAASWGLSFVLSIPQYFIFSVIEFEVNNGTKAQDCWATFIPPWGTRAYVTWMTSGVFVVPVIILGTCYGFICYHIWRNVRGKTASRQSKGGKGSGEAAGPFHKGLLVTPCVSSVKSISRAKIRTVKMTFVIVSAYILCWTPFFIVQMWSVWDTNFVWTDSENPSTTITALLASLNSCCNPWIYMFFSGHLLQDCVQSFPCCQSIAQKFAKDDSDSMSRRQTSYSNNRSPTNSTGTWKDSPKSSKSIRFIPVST
T1 sequence (P37288 whole entry): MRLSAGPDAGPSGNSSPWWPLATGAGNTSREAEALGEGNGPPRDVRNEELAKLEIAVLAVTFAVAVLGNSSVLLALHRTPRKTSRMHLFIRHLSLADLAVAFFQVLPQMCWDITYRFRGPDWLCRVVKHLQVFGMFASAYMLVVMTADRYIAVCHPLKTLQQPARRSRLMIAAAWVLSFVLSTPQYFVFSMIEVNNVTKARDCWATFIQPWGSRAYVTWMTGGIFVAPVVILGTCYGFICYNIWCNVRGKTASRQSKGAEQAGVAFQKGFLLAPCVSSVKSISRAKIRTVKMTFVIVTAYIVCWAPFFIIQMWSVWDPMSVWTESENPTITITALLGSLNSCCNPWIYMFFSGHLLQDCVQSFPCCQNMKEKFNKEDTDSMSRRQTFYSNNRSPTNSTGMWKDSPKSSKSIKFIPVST
Sequence of Voltage-gated inwardly rectifying potassium channel KCNH2 (Q12809 whole entry): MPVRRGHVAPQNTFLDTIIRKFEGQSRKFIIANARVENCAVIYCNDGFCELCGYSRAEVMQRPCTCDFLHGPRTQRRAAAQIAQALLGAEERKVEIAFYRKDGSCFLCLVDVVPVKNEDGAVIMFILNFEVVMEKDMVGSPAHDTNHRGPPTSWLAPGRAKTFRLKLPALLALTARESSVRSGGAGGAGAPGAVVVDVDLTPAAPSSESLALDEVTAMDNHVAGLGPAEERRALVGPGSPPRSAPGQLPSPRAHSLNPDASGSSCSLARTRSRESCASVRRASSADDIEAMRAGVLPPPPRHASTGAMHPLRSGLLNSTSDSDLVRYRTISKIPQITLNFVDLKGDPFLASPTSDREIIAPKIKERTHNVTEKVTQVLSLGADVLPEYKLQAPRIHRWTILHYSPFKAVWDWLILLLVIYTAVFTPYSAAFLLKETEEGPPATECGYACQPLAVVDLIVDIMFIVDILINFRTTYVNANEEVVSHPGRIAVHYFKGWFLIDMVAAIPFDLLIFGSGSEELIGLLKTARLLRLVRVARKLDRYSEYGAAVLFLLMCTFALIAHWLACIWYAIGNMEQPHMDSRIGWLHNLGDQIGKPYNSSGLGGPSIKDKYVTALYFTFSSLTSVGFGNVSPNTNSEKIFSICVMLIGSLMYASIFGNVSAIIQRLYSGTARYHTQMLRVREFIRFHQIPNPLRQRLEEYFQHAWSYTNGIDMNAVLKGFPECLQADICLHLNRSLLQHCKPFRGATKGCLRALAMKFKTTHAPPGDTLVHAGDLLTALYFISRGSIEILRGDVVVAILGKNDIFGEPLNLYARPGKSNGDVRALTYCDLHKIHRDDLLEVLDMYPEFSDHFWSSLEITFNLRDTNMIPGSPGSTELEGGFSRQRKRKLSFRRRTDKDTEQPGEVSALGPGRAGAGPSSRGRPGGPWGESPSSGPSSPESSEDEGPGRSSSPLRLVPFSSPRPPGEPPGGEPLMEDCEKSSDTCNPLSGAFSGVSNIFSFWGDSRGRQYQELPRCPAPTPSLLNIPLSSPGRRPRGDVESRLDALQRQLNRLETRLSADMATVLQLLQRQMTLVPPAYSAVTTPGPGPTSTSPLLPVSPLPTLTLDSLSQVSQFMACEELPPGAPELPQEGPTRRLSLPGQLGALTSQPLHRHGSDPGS
Sequence of Vasopressin V1a receptor (Mus musculus, UniProt Q62463) (Q62463 whole entry): as the sequence (Q62463 whole entry, looked up) above
Sequence of Vasopressin V2 receptor (P30518 whole entry): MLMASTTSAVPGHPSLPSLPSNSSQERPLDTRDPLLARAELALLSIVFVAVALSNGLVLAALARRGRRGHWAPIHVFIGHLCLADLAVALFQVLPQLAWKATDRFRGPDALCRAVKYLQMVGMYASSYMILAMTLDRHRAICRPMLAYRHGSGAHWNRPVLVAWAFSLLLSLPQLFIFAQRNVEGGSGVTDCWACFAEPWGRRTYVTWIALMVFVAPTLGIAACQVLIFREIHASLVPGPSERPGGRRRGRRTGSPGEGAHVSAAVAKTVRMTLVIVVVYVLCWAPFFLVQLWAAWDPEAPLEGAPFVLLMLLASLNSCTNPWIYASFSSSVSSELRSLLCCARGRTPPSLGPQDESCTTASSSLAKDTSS

Take `Clc1ccc2c(c1)CC1(Cc3nnc(N4CCN(c5cccc6c5OCC6)CC4)n3-2)OCCO1`: the inhibition was found to be 86% in [1], 85% in series [3], 81% in [7] and 91% in series [9]. Besides, the IC50 on Vasopressin V1a receptor [2] is 2.2 nM; in [11] it was greater than 30000 nM. Also, the microsomal CLint at 1 µM in series [4] turned out to be 27.1 µL/min/mg; in series [8] it was 36.9 µL/min/mg; in series [10] it was 15.9 µL/min/mg. Besides, in [5], the Papp A→B was 300 nm/s. Also, the inhibition constant (Ki) came to 0.53 nM on Vasopressin V2 receptor, 0.5 nM on Vasopressin V1a receptor [6] and 0.13 nM on Vasopressin V1a receptor [12].
